Measured values reported in patent US5247084A, “Derivatives of p-guanidinobenzoic acid” (priority 1985, dated 1993).
Read-outs that look alike come from different tables or passages of the source.

Target: T1, elastase from human neutrophil (Homo sapiens, UniProt P08246)
T1 construct: using elastase from human neutrophil; from tissue; host or cells: human neutrophil
T1 sequence (P08246 30-247 limits assumed): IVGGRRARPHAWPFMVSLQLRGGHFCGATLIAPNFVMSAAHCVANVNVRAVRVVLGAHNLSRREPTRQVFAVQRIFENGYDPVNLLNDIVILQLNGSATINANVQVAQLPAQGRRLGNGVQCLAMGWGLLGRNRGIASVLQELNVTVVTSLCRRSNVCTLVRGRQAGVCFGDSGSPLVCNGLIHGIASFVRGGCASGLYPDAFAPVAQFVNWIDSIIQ
Assay: Inhibitory effect on elastase (spectrophotometric method, substrate Suc-Ala-Pro-Ala-pNA)
Assay type: biochemical

[1] = Y represents a sulfur atom, pH 8.0, 37° C., 30 minutes, read-out: Elastase Inhibitory Effect, IC50
[2] = at 50 μg/ml, Y represents a sulfur atom, read-out: Elastase Inhibitory Effect, Inhibition %
[3] = Y represents an oxygen atom, pH 8.0, 37° C., 30 minutes, read-out: Inhibitory Effect on Elastase, IC50

Experimental: The test was carried out by the slight modification of the method of Bieth et al [see Biochem. Med., 75, 350 (1974)] using elastase from human neutrophil.
The reaction mixture consisted of 1 mM Suc-Ala-Pro-Ala-pNA (dissolving in N-methylpyrrolidone to the concentration of 100 mM, and then adding 1/100 amount of the solution to the reaction mixture.), 0.1 M buffer solution of tris-hydrochloric acid (pH 8.0), 0.2 M sodium chloride aqueous solution, the sample solution of various concentrations and enzyme solution in a final volume of 1.0 ml was incubated at 37° C. for 30 minutes.
The reaction was stopped by the addition of 100 μl of 50% acetic acid into the reaction mixture, and then p-nitro anilide released was measured on absorbance of 405 nm.
Inhibition percentage of the test compounds was caliculated by the following equation: [formula]

| Compound | IC50 [3] [µM] | inhibition at 100 µM (Y represents an oxygen atom) [%] | further results |
| --- | --- | --- | --- |
| COc1ccccc1SC(=O)c1ccc(NC(=N)N)cc1 [Example 128] |  |  | IC50 [1]: 21 µM; inhibition at 50 µg/mL [2]: 79.8% |
| CS(=O)(=O)c1ccc(OC(=O)c2ccc(NC(=N)N)cc2)cc1 [Example 72] | > 100 |  |  |
| COc1ccc(OC(=O)c2ccc(NC(=N)N)cc2)cc1 [Example 9] |  | 44.4 |  |
| N=C(N)Nc1ccc(C(=O)Oc2cc(Cl)cc(C(=O)N3CCS(=O)(=O)C3)c2)cc1 [Example 123] | 3.1 |  |  |
| N=C(N)Nc1ccc(C(=O)Oc2ccc(Cl)cc2)cc1 [Example 36] |  |  | inhibition at 50 µg/mL (at 50 μg/ml (footnote 2), Y represents an oxygen atom, read-out: Inhibitory Effect on Elastase, Inhibition %): 14.9% |
| N=C(N)Nc1ccc(C(=O)Oc2cccc(S(=O)(=O)N3CCCCC3)c2)cc1 [Example 99] |  | 41 |  |
| CCS(=O)(=O)Oc1cc(COC)cc(OC(=O)c2ccc(NC(=N)N)cc2)c1 [Example 11] | 60 | 66 |  |
| N=C(N)Nc1ccc(C(=O)Oc2cccc(Cl)c2)cc1 [Example 35] | 8 | 87.6 |  |
| COc1cc(COc2ccc(S(=O)(=O)N3CCOCC3)cc2)cc(OC(=O)c2ccc(NC(=N)N)cc2)c1 [Example 152, p-guanidinobenzoic acid 3-methoxy-5-(4-morpholinosulfonyl)phenoxymethylphenylester acetate] | 7 |  |  |
| COC(=O)c1cccc(OC(=O)c2ccc(NC(=N)N)cc2)c1Cl [Example 14] | 4 | 90.7 |  |
| N=C(N)Nc1ccc(C(=O)Sc2ccc(C(=O)O)cc2)cc1 [Example 139] |  |  | inhibition at 50 µg/mL [2]: 23.2% |
| Cc1cc(O)cc(OC(=O)c2ccc(NC(=N)N)cc2)c1 [Example 109] | 160 |  |  |
| N=C(N)Nc1ccc(C(=O)Oc2ccc(I)cc2)cc1 [Example 44] |  | 11.2 |  |
| N=C(N)Nc1ccc(C(=O)Oc2cccc(C(F)(F)F)c2)cc1 [Example 46] | 13 | 71.4 |  |
| N=C(N)Nc1ccc(C(=O)Sc2ccccc2Cl)cc1 [Example 132] |  |  | IC50 [1]: 1.8 µM; inhibition at 50 µg/mL [2]: 93% |
| COC(=O)Cc1ccc(OC(=O)c2ccc(NC(=N)N)cc2)cc1Cl [Example 26] |  | 13.3 |  |
| N=C(N)Nc1ccc(C(=O)Oc2ccc(C(=O)c3ccccc3)c(Cl)c2Cl)cc1 [Example 57] |  | 50.5 |  |
| COC(=O)Cc1cccc(OC(=O)c2ccc(NC(=N)N)cc2)c1 [Example 23] |  | 15.6 |  |
| CCOC(=O)Cc1ccc(SC(=O)c2ccc(NC(=N)N)cc2)cc1 [Example 144] |  |  | inhibition at 50 µg/mL [2]: 75.5% |
| N=C(N)Nc1ccc(C(=O)Oc2ccccc2C(F)(F)F)cc1 [Example 45] | 23 | 72.4 |  |
| Cc1cc(OC(=O)c2ccc(NC(=N)N)cc2)cc(OC(=O)c2ccc(NC(=N)N)cc2)c1 [Example 70] | 6.4 |  |  |
| CC(=O)c1cc(OC(=O)c2ccc(NC(=N)N)cc2)cc(OC(=O)c2ccc(NC(=N)N)cc2)c1 [Example 66] | 72 |  |  |
| N=C(N)Nc1ccc(C(=O)Oc2cccc(Br)c2)cc1 [Example 43] | 6 | 91.7 |  |
| COCc1cc(O)cc(OC(=O)c2ccc(NC(=N)N)cc2)c1 [Example 12] | > 200 | 14 |  |
| CC(C)OC(=O)c1ccc(Cl)cc1OC(=O)c1ccc(NC(=N)N)cc1 [Example 20] | 14 |  |  |
| CN(C)S(=O)(=O)c1ccc(NC(=O)c2cc(Cl)cc(OC(=O)c3ccc(NC(=N)N)cc3)c2)cc1 [Example 103] | 0.95 |  |  |

| Compound | IC50 [3] [µM] | inhibition at 100 µM (Y represents an oxygen atom) [%] | further results |
| --- | --- | --- | --- |
| N=C(N)Nc1ccc(C(=O)Oc2cccc(F)c2)cc1 [Example 29] | 21 | 81.1 |  |
| CCN(CC)S(=O)(=O)c1ccccc1OC(=O)c1ccc(NC(=N)N)cc1 [Example 91] | 180 |  |  |
| CCC(=O)c1ccc(Cl)cc1OC(=O)c1ccc(NC(=N)N)cc1 [Example 52] | 1.6 |  |  |
| Cc1cccc(SC(=O)c2ccc(NC(=N)N)cc2)c1 [Example 126] |  |  | IC50 [1]: 5 µM; inhibition at 50 µg/mL [2]: 89.7% |
| COc1cc(Cl)cc(OC(=O)c2ccc(NC(=N)N)cc2)c1 [Example 39] | 2.4 | 91.1 |  |
| N=C(N)Nc1ccc(C(=O)Oc2ccc(F)cc2)cc1 [Example 30] |  | 10.7 |  |
| N=C(N)Nc1ccc(C(=O)Sc2ccc(CC(=O)O)cc2)cc1 [Example 140] |  |  | inhibition at 50 µg/mL [2]: 47.8% |
| N=C(N)Nc1ccc(C(=O)Oc2c(Cl)cccc2Cl)cc1 [Example 38] | 2 | 89.9 |  |
| Cc1ccccc1SC(=O)c1ccc(NC(=N)N)cc1 [Example 125] |  |  | IC50 [1]: 20 µM; inhibition at 50 µg/mL [2]: 76.3% |
| CCS(=O)(=O)Oc1cc(C)cc(OC(=O)c2ccc(NC(=N)N)cc2)c1 [Example 78] | 27 |  |  |
| N=C(N)Nc1ccc(C(=O)Oc2cccc(S(N)(=O)=O)c2)cc1 [Example 89] | 65 |  |  |
| N=C(N)Nc1ccc(C(=O)Oc2cc(Cl)ccc2C(=O)CC2CCCC2)cc1 [Example 58] | 1.9 |  |  |
| CNC(=O)c1cc(O)cc(OC(=O)c2ccc(NC(=N)N)cc2)c1 [Example 114] |  | 22 |  |
| CCS(=O)(=O)Nc1cc(Cl)cc(OC(=O)c2ccc(NC(=N)N)cc2)c1 [Example 106] | 15 |  |  |
| N=C(N)Nc1ccc(C(=O)Oc2cc(O)cc(OC(=O)c3ccc(NC(=N)N)cc3)c2)cc1 [Example 113] |  | 42 |  |
| CN(C)S(=O)(=O)c1ccc(OC(=O)c2ccc(NC(=N)N)cc2)cc1Cl [Example 90] | 140 |  |  |
| N=C(N)Nc1ccc(C(=O)Oc2cccc(S(=O)(=O)N3CCOCC3)c2)cc1 [Example 100] |  | 44.2 |  |
| N=C(N)Nc1ccc(C(=O)Oc2cc(Cl)cc(C(N)=O)c2)cc1 [Example 79] | 5.2 |  |  |
| N=C(N)Nc1ccc(C(=O)Oc2cc(Cl)cc(OS(=O)(=O)c3ccccc3)c2)cc1 [Example 77] | 0.8 |  |  |
| COc1cc(OC(=O)c2ccc(NC(=N)N)cc2)ccc1Cl [Example 40] |  | 39 |  |
| CC(=O)c1cccc(OC(=O)c2ccc(NC(=N)N)cc2)c1 [Example 48] |  | 4.1 |  |
| N=C(N)Nc1ccc(C(=O)Sc2cccc(Cl)c2)cc1 [Example 133] |  |  | IC50 [1]: 0.3 µM; inhibition at 50 µg/mL [2]: 81.2% |
| N=C(N)Nc1ccc(C(=O)Oc2cc(C(F)(F)F)cc(C(F)(F)F)c2)cc1 [Example 47] | 3.2 |  |  |
| CCCN(CCC)S(=O)(=O)c1ccc(OC(=O)c2ccc(NC(=N)N)cc2)cc1 [Example 97] | 58 |  |  |
| COC(=O)c1ccc(OC(=O)c2ccc(NC(=N)N)cc2)cc1Cl [Example 16] |  | 42 |  |
| Cc1ccc(SC(=O)c2ccc(NC(=N)N)cc2)cc1 [Example 127] |  |  | inhibition at 50 µg/mL [2]: 29.3% |

| Compound | IC50 [3] [µM] | inhibition at 100 µM (Y represents an oxygen atom) [%] | further results |
| --- | --- | --- | --- |
| CC(=O)OCc1cc(Cl)cc(OC(=O)c2ccc(NC(=N)N)cc2)c1 [Example 71] | 3 |  |  |
| N=C(N)Nc1ccc(C(=O)Oc2c(F)cccc2F)cc1 [Example 31] | 3.7 |  |  |
| CS(=O)(=O)Oc1cc(Cl)cc(OC(=O)c2ccc(NC(=N)N)cc2)c1 [Example 74] | 1 |  |  |
| CC(C)OC(=O)c1cccc(OC(=O)c2ccc(NC(=N)N)cc2)c1Cl [Example 21] | 2 |  |  |
| N=C(N)Nc1ccc(C(=O)Oc2cc(Cl)cc(Cl)c2)cc1 [Example 1, p-guanidinobenzoic acid 3,5-dichlorophenyl ester methanesulfonate] | 0.4 | 97 |  |
| COc1cccc(OC(=O)c2ccc(NC(=N)N)cc2)c1 [Example 8] | 100 | 50.9 |  |
| CN(C)C(=O)Oc1cc(Cl)cc(OC(=O)c2ccc(NC(=N)N)cc2)c1 [Example 87] |  |  | IC50: 0.76 µM |
| N=C(N)Nc1ccc(C(=O)Oc2ccc(C(=O)c3ccccc3)cc2)cc1 [Example 55] |  | 33.3 |  |
| COC(=O)c1ccc(OC(=O)c2ccc(NC(=N)N)cc2)c(Cl)c1 [Example 15] | 98 | 55.6 |  |
| N=C(N)Nc1ccc(C(=O)Oc2ccc([N+](=O)[O-])cc2)cc1 [Example 108] | 120 | 60.1 |  |
| CCN(CC)S(=O)(=O)c1ccc(NC(=O)c2cc(Cl)cc(OC(=O)c3ccc(NC(=N)N)cc3)c2)cc1 [Example 104] | 1.1 |  |  |
| CCN(CC)S(=O)(=O)c1ccc(OC(=O)c2ccc(NC(=N)N)cc2)cc1 [Example 93] | 58 |  |  |
| COc1cccc(SC(=O)c2ccc(NC(=N)N)cc2)c1 [Example 129] |  |  | IC50 [1]: 6.4 µM; inhibition at 50 µg/mL [2]: 89.2% |
| CC(=O)c1ccc(Cl)cc1OC(=O)c1ccc(NC(=N)N)cc1 [Example 51] | 1.8 |  |  |
| N=C(N)Nc1ccc(C(=O)Sc2ccc(F)cc2)cc1 [Example 131] |  |  | IC50 [1]: 21 µM; inhibition at 50 µg/mL [2]: 83% |
| COc1cc(OC)cc(OC(=O)c2ccc(NC(=N)N)cc2)c1 [Example 10] | 40 |  |  |
| CCCNC(=O)c1cc(OC(=O)c2ccc(NC(=N)N)cc2)cc(C(=O)NCCC)c1 [Example 84] |  | 36 |  |
| N=C(N)Nc1ccc(C(=O)Oc2c(F)c(F)c(F)c(F)c2F)cc1 [Example 33] | 5.8 | 92.1 |  |
| CCOC(=O)c1ccc(SC(=O)c2ccc(NC(=N)N)cc2)cc1 [Example 142] |  |  | inhibition at 50 µg/mL [2]: 69.1% |
| COc1ccccc1OC(=O)c1ccc(NC(=N)N)cc1 [Example 7] |  | 23.1 |  |
| CC(C)C(=O)c1ccc(Cl)cc1OC(=O)c1ccc(NC(=N)N)cc1 [Example 53] | 6.5 |  |  |
| COc1ccc(Cl)c(OC(=O)c2ccc(NC(=N)N)cc2)c1 [Example 41] | 13 |  |  |
| Cc1cccc(OC(=O)c2ccc(NC(=N)N)cc2)c1 [Example 3] |  | 45.6 |  |
| N=C(N)Nc1ccc(C(=O)Oc2cccc(F)c2F)cc1 [Example 32] | 3.7 |  |  |
| CS(=O)(=O)Nc1ccc(Cl)c(OC(=O)c2ccc(NC(=N)N)cc2)c1 [Example 105] | 8.5 |  |  |
